Source: BigSolDB 2.1

Cc1ccc(NC(=O)C(C)Cl)cc1 (stereo not given)
Details	solubility (mole fraction)
in 2-butanone, 271.23 K	0.0774
in 2-butanone, 275.52 K	0.0829
in 2-butanone, 280.9 K	0.0892
in 2-butanone, 285.45 K	0.105
in 2-butanone, 291.46 K	0.115
in 2-butanone, 296.73 K	0.128
in 2-butanone, 302.41 K	0.13
in 2-butanone, 307.63 K	0.149
in 2-butanone, 313.15 K	0.173
in 2-butanone, 319.11 K	0.208
in acetone, 271.96 K	0.0616
in acetone, 283.37 K	0.0767
in acetone, 287.02 K	0.0811
in acetone, 290.81 K	0.0861
in acetone, 294.37 K	0.0917
in acetone, 300.04 K	0.105
in acetone, 302.89 K	0.114
in acetone, 307.95 K	0.136
in acetone, 310.94 K	0.15
in acetone, 315.55 K	0.155
in toluene, 273.24 K	0.00517
in toluene, 278.33 K	0.00719
in toluene, 285.5 K	0.00929
in toluene, 290.93 K	0.0125
in toluene, 297.29 K	0.0168
in toluene, 301.24 K	0.02
in toluene, 307.73 K	0.0278
in toluene, 312.06 K	0.0356
in toluene, 315.66 K	0.0413
in toluene, 321.66 K	0.0579
